Assay results: ChEMBL document CHEMBL1949518, “Synthesis and biological evaluation of some new 2-pyrazolines bearing benzene sulfonamide moiety as potential anti-inflammatory and anti-cancer agents” (Eur J Med Chem, 2011)

How the values were obtained:
SK-MEL-2 = test: Antiproliferative activity against human SK-MEL-2 cells assessed as cell growth at 10^-5 M after 48 hrs by SRB assay relative to control; assay type: functional; conditions: SK-MEL-2, 48 h, read-out: Activity
BT-549 = test: Anticancer activity against human BT549 cells after 48 hrs by SRB assay; assay type: functional; conditions: BT-549, 48 h; for CC50: read-out: LC50 (the source's name)
UO-31 = test: Anticancer activity against human UO31 cells after 48 hrs by SRB assay; assay type: functional; conditions: UO-31, 48 h; for CC50: read-out: LC50 (the source's name)
SNB-75 = test: Anticancer activity against human SNB75 cells after 48 hrs by SRB assay; assay type: functional; conditions: SNB-75, 48 h
Mus musculus [1] = test: Toxicity in Swiss albino mouse assessed as behavioral change at 100 mg/kg, po measured up to 24 hrs; assay type: organism-based; parameters: dose 100 mg/kg, route oral; conditions: in vivo
786-0 = test: Anticancer activity against human 786-0 cells after 48 hrs by SRB assay; assay type: functional; conditions: 786-0, 48 h; for CC50: read-out: LC50 (the source's name)
Mus musculus [2] = test: Toxicity in Swiss albino mouse assessed as mortality at 100 mg/kg, po measured up to 24 hrs; assay type: organism-based; parameters: dose 100 mg/kg, route oral; conditions: in vivo
SR = test: Anticancer activity against human SR cells after 48 hrs by SRB assay; assay type: functional
DU-145 = test: Anticancer activity against human DU145 cells after 48 hrs by SRB assay; assay type: functional; conditions: DU-145, 48 h; for CC50: read-out: LC50 (the source's name)
[3] = target: Prostaglandin G/H synthase 1 (Bos taurus, UniProt O62664); test: Inhibition of bovine COX1 assessed as PGE2 formation preincubated for 10 mins by ELISA
MDA-MB-468 = test: Anticancer activity against human MDA-MB-468 cells after 48 hrs by SRB assay; assay type: functional; conditions: MDA-MB-468, 48 h; for CC50: read-out: LC50 (the source's name)
SK-OV-3 = test: Anticancer activity against human SKOV3 cells after 48 hrs by SRB assay; assay type: functional; conditions: SK-OV-3, 48 h; for CC50: read-out: LC50 (the source's name)
RXF 393 = test: Anticancer activity against human RXF393 cells after 48 hrs by SRB assay; assay type: functional; conditions: RXF 393, 48 h; for CC50: read-out: LC50 (the source's name)
LOX IMVI = test: Anticancer activity against human LOXIMVI cells after 48 hrs by SRB assay; assay type: functional; conditions: for CC50: read-out: LC50 (the source's name)
HOP-92 = test: Anticancer activity against human HOP92 cells after 48 hrs by SRB assay; assay type: functional; conditions: HOP-92, 48 h
CAKI-1 = test: Anticancer activity against human Caki1 cells after 48 hrs by SRB assay; assay type: functional; conditions: CAKI-1, 48 h; for CC50: read-out: LC50 (the source's name)
OVCAR-8 = test: Anticancer activity against human OVCAR8 cells after 48 hrs by SRB assay; assay type: functional; conditions: OVCAR-8, 48 h; for CC50: read-out: LC50 (the source's name)
NCI-H23 = test: Anticancer activity against human NCI-H23 cells after 48 hrs by SRB assay; assay type: functional; conditions: NCI-H23, 48 h
MOLT-4 = test: Anticancer activity against human MOLT4 cells after 48 hrs by SRB assay; assay type: functional; conditions: MOLT-4, 48 h
Rattus norvegicus = test: Ulcerogenic activity in fasted Wistar albino rat at 60 mg/kg, po administered as 3 dose measured after 6 hrs post last dose; assay type: toxicity, organism-based; parameters: dose 60 mg/kg, route oral; conditions: in vivo
HCT-116 = test: Anticancer activity against human HCT116 cells after 48 hrs by SRB assay; assay type: functional; conditions: HCT-116, 48 h
RPMI-8226 = test: Anticancer activity against human RPMI8226 cells after 48 hrs by SRB assay; assay type: functional; conditions: RPMI-8226, 48 h

Chain of Prostaglandin G/H synthase 1 (O62664 whole entry): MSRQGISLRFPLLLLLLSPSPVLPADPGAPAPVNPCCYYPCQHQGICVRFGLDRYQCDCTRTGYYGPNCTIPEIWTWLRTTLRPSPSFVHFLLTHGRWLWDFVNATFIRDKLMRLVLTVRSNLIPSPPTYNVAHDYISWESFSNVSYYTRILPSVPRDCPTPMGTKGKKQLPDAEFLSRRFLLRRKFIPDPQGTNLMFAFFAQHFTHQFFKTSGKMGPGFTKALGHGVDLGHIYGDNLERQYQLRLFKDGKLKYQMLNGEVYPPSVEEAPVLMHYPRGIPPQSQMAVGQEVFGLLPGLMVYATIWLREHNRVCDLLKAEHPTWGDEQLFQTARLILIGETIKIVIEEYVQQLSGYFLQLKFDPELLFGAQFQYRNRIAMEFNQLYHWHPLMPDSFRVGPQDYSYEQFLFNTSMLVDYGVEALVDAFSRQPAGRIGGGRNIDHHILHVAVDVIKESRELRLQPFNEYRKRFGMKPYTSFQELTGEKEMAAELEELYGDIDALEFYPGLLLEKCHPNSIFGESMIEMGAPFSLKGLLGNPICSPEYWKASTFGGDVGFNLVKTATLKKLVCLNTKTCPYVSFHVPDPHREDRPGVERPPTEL

COc1ccc(C2CC(c3c(O)cc(C)c(Cl)c3C)=NN2c2ccc(S(N)(=O)=O)cc2)cc1 (configuration not stated)
growth at 10 µM (SK-MEL-2): 94.3%

Cc1cc(O)c(C2=NN(c3ccc(S(N)(=O)=O)cc3)C(c3ccc(Cl)cc3)C2)c(C)c1Cl (configuration not stated)
GI50 (BT-549): 15.4 µM
TGI (BT-549): 43.3 µM
CC50 (BT-549): 100 µM
GI50 (UO-31): 12.7 µM
TGI (UO-31): 29.4 µM
CC50 (UO-31): 68.1 µM
GI50 (SNB-75): 17 µM
TGI (SNB-75): 42.2 µM
Activity (Mus musculus [1]): Non-toxic
GI50 (786-0): 16.8 µM
TGI (786-0): 32.2 µM
CC50 (786-0): 62 µM
Activity (Mus musculus [2]): Non-toxic
GI50 (SR): 14.1 µM
TGI (SR): 37.5 µM
GI50 (DU-145): 19.2 µM
TGI (DU-145): 38.4 µM
CC50 (DU-145): 77 µM
IC50 [3]: 89.5 µM
GI50 (MDA-MB-468): 17.1 µM
TGI (MDA-MB-468): 33.8 µM
CC50 (MDA-MB-468): 66.7 µM
GI50 (SK-OV-3): 27.4 µM
TGI (SK-OV-3): 90.8 µM
CC50 (SK-OV-3): 100 µM
GI50 (RXF 393): 24.5 µM
TGI (RXF 393): 59.1 µM
CC50 (RXF 393): 100 µM
GI50 (LOX IMVI): 14.8 µM
TGI (LOX IMVI): 32 µM
CC50 (LOX IMVI): 69.2 µM
GI50 (HOP-92): 10.3 µM
TGI (HOP-92): 23.6 µM
growth at 10 µM (SK-MEL-2): 92.5%
GI50 (CAKI-1): 23.3 µM
TGI (CAKI-1): 100 µM
CC50 (CAKI-1): 100 µM
GI50 (OVCAR-8): 27.3 µM
TGI (OVCAR-8): 100 µM
CC50 (OVCAR-8): 100 µM
GI50 (NCI-H23): 17.7 µM
TGI (NCI-H23): 43.7 µM
GI50 (MOLT-4): 12.7 µM
TGI (MOLT-4): 43.2 µM
Activity (Rattus norvegicus): Non-toxic

Cc1cc(O)c(C2=NN(c3ccc(S(N)(=O)=O)cc3)C(c3ccc(N(C)C)cc3)C2)c(C)c1Cl (configuration not stated)
GI50 (BT-549): 1.31 µM
TGI (BT-549): 27.7 µM
CC50 (BT-549): 58.9 µM
GI50 (UO-31): 3.78 µM
TGI (UO-31): 19.2 µM
CC50 (UO-31): 52.3 µM
GI50 (SNB-75): 10.9 µM
LC50 (SNB-75): 51.2 µM
TGI (SNB-75): 23.7 µM
GI50 (HCT-116): 3.47 µM
LC50 (concentration killing 50% of cells) (HCT-116): 36 µM
TGI (HCT-116): 12.9 µM
GI50 (RPMI-8226): 3.99 µM
LC50 (RPMI-8226): 22.3 µM
TGI (RPMI-8226): 5.02 µM
GI50 (786-0): 4.97 µM
TGI (786-0): 17.4 µM
CC50 (786-0): 43.4 µM
GI50 (SR): 1.28 µM
LC50 (concentration killing 50% of cells) (SR): 45.9 µM
TGI (SR): 17.8 µM
GI50 (DU-145): 5.6 µM
TGI (DU-145): 17.6 µM
CC50 (DU-145): 42.3 µM
GI50 (MDA-MB-468): 10.7 µM
TGI (MDA-MB-468): 24.6 µM
CC50 (MDA-MB-468): 56.8 µM
GI50 (SK-OV-3): 7.75 µM
TGI (SK-OV-3): 20.6 µM
CC50 (SK-OV-3): 4.54 µM
GI50 (RXF 393): 5.83 µM
TGI (RXF 393): 21.2 µM
CC50 (RXF 393): 58.9 µM
GI50 (LOX IMVI): 2.34 µM
TGI (LOX IMVI): 6.98 µM
CC50 (LOX IMVI): 32.7 µM
GI50 (HOP-92): 3.74 µM
LC50 (HOP-92): 41.9 µM
TGI (HOP-92): 17.6 µM
GI50 (CAKI-1): 4.38 µM
TGI (CAKI-1): 18.2 µM
CC50 (CAKI-1): 45 µM
GI50 (OVCAR-8): 5.75 µM
TGI (OVCAR-8): 21.6 µM
CC50 (OVCAR-8): 66.4 µM
GI50 (NCI-H23): 5.82 µM
LC50 (concentration killing 50% of cells) (NCI-H23): 47.3 µM
TGI (NCI-H23): 19.9 µM
GI50 (MOLT-4): 1.94 µM
LC50 (MOLT-4): 34.9 µM
TGI (MOLT-4): 7.26 µM
